In US8003658B2, “Quinazoline derivatives for inhibiting cancer cell growth and method for the preparation thereof” (Hanmi Holdings Co., Ltd., priority 2004, dated 2011):
Where two headings read alike, the source gives them in different places.

Key:
[1] = system: A431 (ATCC: CRL-1555); assay: Test of cancer cell growth inhibition (SRB), A431; details: read-out: IC50 A431
[2] = target: EGFR (EGFR type 1 kinase) (Homo sapiens, UniProt P00533); assay: Inhibition of EGFR enzyme (fluorescence polarization kinase assay)
Description: 10 μl of EGFR (EGFR type 1 kinase) was added to each well of a 96-well microplate.

[3] = system: SK-Br3 (ATCC: HTB-30); assay: Test of cancer cell growth inhibition (SRB), SK-Br3; details: read-out: IC50 SK-Br-3
[4] = system: SW-620 (ATCC: CCL-227); assay: Test of cancer cell growth inhibition (SRB), SW-620; details: Homo sapiens, SW-620, 72 h, read-out: IC50 SW-620
[5] = EGFR overexpressed A431, 72 hours, SRB
[6] = read-out: IC50 EGFR, Poly (Glu, Tyr) 4:1 and ATP, 1 hour room temperature, FP readout
[7] = Erb-B2 overexpressed SK-Br3, 72 hours, SRB

Molecule | IC50 ([1]; Homo sapiens, A-431, 72 h) [nM] | IC50 [2] [nM] | IC50 ([3]; Homo sapiens, SK-BR-3, 72 h) [nM] | IC50 [1, 5] [nM] | IC50 [2, 6] [nM] | IC50 [3, 7] [nM] | IC50 [4] [nM]
C=CC(=O)N[C@@H](C)C(=O)Nc1cc2c(Nc3ccc(OCc4ccccn4)c(Cl)c3)ncnc2cc1OC [Example 190, (1S)—N-(1-{4-[3-chloro-4-(pyridin-2-ylmethoxy)-phenylamino]-7-methoxy-quinazolin-6-ylcarbamoyl}-ethyl)-acrylamide] | 13 | 2 | 6 |  |  |  | 
COCC(=O)NCCC(=O)Nc1ccc2ncnc(Nc3ccc(OCc4cccc(F)c4)c(Cl)c3)c2c1 [Example 20-2, N-{4-[3-chloro-4-(3-fluoro-benzyloxy)-phenylamino]-quinazolin-6-yl}-3-(2-methoxy-acetylamino)-propionamide] | 948 | 30 | 151 |  |  |  | 
CC#CC(=O)N1CCC[C@H]1C(=O)Nc1cc2c(Nc3ccc(OCc4ccccn4)c(Cl)c3)ncnc2cc1OC [Example 146, (2S)-1-(1-oxo-butyn-2-yl)-pyrrolidine-2-carboxylic acid {4-[3-chloro-4-(pyridin-2-ylmethoxy)-phenylamino]-7-methoxy-quinazolin-6-yl}-amide] |  |  |  | 32 | 4 | 40 | 
C=CC(=O)N1CCC[C@H]1C(=O)Nc1ccc2ncnc(Nc3ccc(OCc4cccc(C)n4)c(Cl)c3)c2c1 [Example 147, (2S)-1-acryloyl-pyrrolidine-2-carboxylic acid {4-[3-chloro-4-(6-methyl-pyridin-2-ylmethoxy)-phenylamino]-quinazolin-6-yl}-amide] | 21 | 2 | 19 |  |  |  | 
C=CC(=O)NCC(=O)Nc1cc2c(Nc3ccc(OCc4cccc(F)c4)c(Cl)c3)ncnc2cc1OCCOC [Example 217, N-({4-[3-chloro-4-(3-fluoro-benzyloxy)-phenylamino]-7-(2-methoxyethoxy)-quinazolin-6-ylcarbamoyl}-methyl)-acrylamide] | 14 | 2 | 3 |  |  |  | 
C=CC(=O)N1CCC[C@H]1C(=O)Nc1cc2c(Nc3ccc(OCc4ccccn4)c(Cl)c3)ncnc2cc1OC [Example 166, (2S)-1-acryloyl-pyrrolidine-2-carboxylic acid {4-[3-chloro-4-(pyridin-2-ylmethoxy)-phenylamino]-7-methoxy-quinazolin-6-yl}-amide] |  | 3 |  | 27 |  | 3 | 
C=CC(=O)NCCC(=O)Nc1cc2c(Nc3ccc(OCc4ccccn4)c(C)c3)ncnc2cc1F [Example 178, N-(2-{7-fluoro-4-[3-methyl-4-(pyridin-2-ylmethoxy)-phenylamino]-quinazolin-6-ylcarbamoyl}-ethyl)-acrylamide] | 50 | 4 | 3 |  |  |  | 
C=CC(=O)N[C@H](C)C(=O)Nc1cc2c(Nc3ccc(OCc4ccccn4)c(Cl)c3)ncnc2cc1OCCOC [Example 208, (1R)—N-(1-{4-[3-chloro-4-(pyridin-2-ylmethoxy)-phenylamino]-7-(2-methoxy-ethoxy)-quinazolin-6-ylcarbamoyl}-ethyl)-acrylamide] | 11 | 2 | 3 |  |  |  | 
C=CC(=O)NCCC(=O)Nc1cc2c(Nc3ccc(OCc4ccccn4)c(Cl)c3)ncnc2cc1OC [Example 167, N-(2-{4-[3-chloro-4-(pyridin-2-ylmethoxy)-phenylamino]-7-methoxy-quinazolin-6-ylcarbamoyl}-ethyl)-acrylamide] | 17 | 2 | 4 |  |  |  | 
C=CC(=O)NCCC(=O)Nc1ccc2ncnc(Nc3ccc(OCc4ccccn4)c(Cl)c3)c2c1 [Example 131, N-(2-{4-[3-chloro-4-(pyridin-2-ylmethoxy)-phenylamino]-quinazolin-6-ylcarbamoyl}-ethyl)-acrylamide] | 37 | 4 | 3 |  |  |  | 
C=CC(=O)N[C@H](C)C(=O)Nc1cc2c(Nc3ccc(OCc4ccccn4)c(Cl)c3)ncnc2cc1OC [Example 189, (1R)—N-(1-{4-[3-chloro-4-(pyridin-2-ylmethoxy)-phenylamino]-7-methoxy-quinazolin-6-ylcarbamoyl}-ethyl)-acrylamide] | 9 | 1 | 2 |  |  |  | 
C=CC(=O)NCC(=O)Nc1cc2c(Nc3ccc(OCc4ccccn4)c(Cl)c3)ncnc2cc1OCCOC [Example 218, N-({4-[3-chloro-4-(pyridin-2-ylmethoxy)-phenylamino]-7-(2-methoxyethoxy)-quinazolin-6-ylcarbamoyl}-methyl)-acrylamide] | 16 | 2 | 4 |  |  |  | 
C=CC(=O)N(C)CCC(=O)Nc1ccc2ncnc(Nc3ccc(OCc4cccc(F)c4)c(Cl)c3)c2c1 [Example 142-2, N-(2-{4-[3-chloro-4-(3-fluoro-benzyloxy)-phenylamino]-quinazolin-6-ylcarbamoyl}-ethyl)-N-methyl-acrylamide] | 19 | 2 | 4 |  |  |  | 
(1S)—N-(1-{4-[3-chloro-4-(pyridin-2-ylmethoxy)-phenylamino]-7-methoxy-quinazolin-6-ylcarbamoyl}-ethyl)-acrylamide [Example 216] |  |  |  | 13 | 2 | 8 | 
C=CC(=O)N[C@@H](CC)C(=O)Nc1cc2c(Nc3ccc(OCc4ccccn4)c(Cl)c3)ncnc2cc1OC [Example 205, (2S)-2-acryloylamino-N-{4-[3-chloro-4-(pyridin-2-ylmethoxy)-phenylamino]-7-methoxy-quinazolin-6-yl}-butyramide] | 17 | 2 | 19 |  |  |  | 
C=CC(=O)NCC(=O)Nc1cc2c(Nc3ccc(OCc4cccc(F)c4)c(Cl)c3)ncnc2cc1OC [Example 211, N-({4-[3-chloro-4-(3-fluoro-benzyloxy)-phenylamino]-7-methoxy-quinazolin-6-ylcarbamoyl}-methyl)-acrylamide] | 16 | 2 | 6 |  |  |  | 
C=CC(=O)N(C)CCC(=O)Nc1ccc2ncnc(Nc3ccc(OCc4ccccn4)c(Cl)c3)c2c1 [Example 143, N-(2-{4-[3-chloro-4-(pyridin-2-ylmethoxy)-phenylamino]-quinazolin-6-ylcarbamoyl}-ethyl)-N-methyl-acrylamide] | 10 | 1 | 2 |  |  |  | 
C=CC(=O)NCCC(=O)Nc1ccc2ncnc(Nc3ccc(OCc4cccc(F)c4)c(Cl)c3)c2c1 [Example 22, N-(2-{4-[3-chloro-4-(3-fluoro-benzyloxy)-phenylamino]-quinazolin-6-ylcarbamoyl}-ethyl)-acrylamide] | 58 | 3 | 3 |  |  |  | > 10000
C=CC(=O)NCCC(=O)N(C)c1ccc2ncnc(Nc3ccc(OCc4cccc(F)c4)c(Cl)c3)c2c1 [Example 139-5, N-[2-({4-[3-chloro-4-(3-fluoro-benzyloxy)-phenylamino]-quinazolin-6-yl}-methyl-carbamoyl)-ethyl]-acrylamide] | 69 | 5 | 47 |  |  |  | 
C=CC(=O)N1CCC[C@H]1C(=O)Nc1ccc2ncnc(Nc3ccc(OCc4ccccn4)c(Cl)c3)c2c1 [Example 145, (2S)-1-acryloyl-pyrrolidine-2-carboxylic acid {4-[3-chloro-4-(pyridin-2-ylmethoxy)-phenylamino]-quinazolin-6-yl}-amide] |  | 4 | 25 | 32 |  |  | 
C=CC(=O)N[C@@H](C)C(=O)Nc1cc2c(Nc3ccc(OCc4ccccn4)c(Cl)c3)ncnc2cc1OCCCN1CCOCC1 [Example 219, (1S)—N-(1-{4-[3-chloro-4-(pyridin-2-ylmethoxy)-phenylamino]-7-(3-morpholin-4-yl-propoxy)-quinazolin-6-ylcarbamoyl}-ethyl)-acrylamide] | 17 | 2 | 7 |  |  |  | 
C#Cc1cccc(Nc2ncnc3cc(OCCOC)c(OCCOC)cc23)c1 [Tarceva, reference compound] | 59 |  | 891 |  |  |  | > 10000
